Measurements reported in article PMC10959927, “Platinum iodido drugs show potential anti-tumor activity, affecting cancer cell metabolism and inducing ROS and senescence in gastrointestinal cancer cells” (Communications Biology, 2024).
Several values for one entry are separate records, joined by “and”; a condition that tells them apart may be missing. Equal entries are not always repeated.

Tests used:
Assay type in all cases: cell-based, human
[1] = tested on: MKN45 cells; experiment: Immunofluorescence of γ-H2AX foci; conditions: Fig. 3B; for foci/cell, number of cells in class: cell count
Procedure: Cells (7 × 10^4) were seeded on 20 mm coverslips. […] Coverslips were incubated for 1 h with the primary antibody (Cell Signaling: H2AX Ser139 (#2595) and 53BP1 (#4937)) at room temperature, followed by a 1 h incubation with the appropriate secondary antibody. DNA was stained with DAPI. Fluorescence microscopy was performed using a NIKON Eclipse 90i. The image analysis was performed using the software program Nikon NIS-Elements and Image J.

[2] = tested on: AGS cells; experiment: SA-β-Gal histochemical staining; conditions: Fig. S4A
Procedure: SA-β-Gal activity was measured following two different approaches. (i) AGS, MKN45 and PANC1 cells (5 × 10^4) were seeded in 24-multiwell dishes and incubated overnight. […] For flow cytometry cell senescence detection, cells were tripsinized, fixed for 15 min with PFA 4% and stained with the CellEvent Senescense Green Flow Cytometry Assay Kit (C10840, Invitrogen) according to manufacturer’s instructions. CellEvent Senescense Green Probe was used at a 1:500 dilution and fluorescence was detected using the filter (Ex488nm/Em530/30) BL1 with a 4-laser Attune NxT Acoustic Cytometer (Thermo Fisher Scientific). […] After 3 h, the treatments were removed, new supplemented medium was added, and cells were incubated for an additional 24 h. Finally, SA-β-Gal staining was performed using the Senescence Cells Histochemical Staining Kit (CS0030-1KT) according to the manufacturer’s instructions.

[3] = tested on: AGS cells; experiment: Western blotting (p-p53, p-JNK, p-p38, p-ERK, p-CHK1/2, Mcl1, BID, BAX); conditions: for fold change p-ERK vs Tubulin / fold change p-JNK vs Tubulin / fold change p-p38 vs Tubulin / fold change p-p53 vs Tubulin: Fig. 4A, replicate values; for fold change BAX vs Tubulin / fold change MCL1 vs Tubulin / fold change BID full length vs Tubulin: Fig. S3B
Procedure: (§1) Total protein extracts were obtained by adding the lysis buffer: 25 mM HEPES pH 7.5, 0.3 M NaCl, 1.5 mM MgCl2, 0.2 mM EDTA, 0.5 mM DTT, 20 mM β-glicerophosphate, 0.1 mM Na3VO4, 0.1% triton X-100; in the presence of protease inhibitors. Twenty μg of protein per sample were loaded and resolved using 8%, 10% or 15% SDS-PAGE polyacrylamide gels, and then transferred onto PVDF membranes, followed by immunodetection using appropriate antibodies, purchased from Santa Cruz Technology: Mcl-1 (sc-819), Cell Signaling Technology: BIM, BID, BAX (#9942), p-p38 (1:2000, #4631), p-p53^ser15 (#9284), p-ERK1/2 (1:2000, #9106), p-CHK1^ser345 and p-CHK2^ser19 (#9931), Promega Corporation-Spain: p-JNK (#V7932), or Sigma-Aldrich: α-tubulin (1:10000, #TP026). Unless indicated, all antibodies were diluted 1:1000. Secondary antibodies conjugated with horseradish peroxidase were purchased from BioRad, and chemiluminescence detection was performed using ECL (Santa Cruz Biotechnology).

[4] = tested on: PANC1 cells; experiment: as above; conditions: for fold change p-ERK vs Tubulin / fold change p-JNK vs Tubulin / fold change p-p38 vs Tubulin / fold change p-p53 vs Tubulin: PANC1, Fig. 4A, replicate values
Procedure: as §1

[5] = tested on: PANC1 cells; experiment: Clonogenic (CFU) assay after 1, 3, 24 h pre-treatment
Procedure: (§2) For the clonogenic assay we used two different approaches. […] Then, cells were cultured in a 6-well plate at a very low concentration (2 × 10^3 cells per well) and incubated for 10 days. […] To evaluate the role of ROS in cell proliferation, we supplemented the growth medium with 0.5 mM NAC. After 10 days, the cells were fixed with 1% glutaraldehyde and stained with 0.1% crystal violet. The number of colonies was quantified directly and reflected as CFUs: Colony Forming Units.

[6] = tested on: AGS cells; experiment: Clonogenic (CFU) assay with or without NAC; conditions: IC50 concentration, 10 days
Procedure: as §2

[7] = tested on: MKN45 cells; experiment: Clonogenic (CFU) assay with or without NAC; conditions: 10 days
Procedure: as §2

[NH2][Pt]([NH2])([Cl])[Cl] [CDDP, cisplatin, reference compound]
foci/cell, share of cells in class (Suma 100) ([1]; class 16-30 foci/cell): 6.667
foci/cell, number of cells in class ([1]; class 16-30 foci/cell): 4
foci/cell, share of cells in class (Suma 100) ([1]; class 31-45 foci/cell): 13.3333
foci/cell, number of cells in class ([1]; class 31-45 foci/cell): 8
foci/cell, share of cells in class (Suma 100) ([1]; class 46-60 foci/cell): 16.6667
foci/cell, number of cells in class ([1]; class 46-60 foci/cell): 10
foci/cell, share of cells in class (Suma 100) ([1]; class <15 foci/cell): 0
foci/cell, number of cells in class ([1]; class <15 foci/cell): 0
foci/cell, share of cells in class (Suma 100) ([1]; class >61 foci/cell): 63.3333
foci/cell, number of cells in class ([1]; class >61 foci/cell): 38
Fold change % Senescence [2]: 58.33% and 50% and 67.21%
phosphorylation of CHK1/2 (DDR pathway, western blot) ([3]; IC50, 1, 3, 6 or 24 h): induced the phosphorylation
fold change p-ERK vs Tubulin ([3]; Time 1 h): 0.9528 fold change and 0.9782 fold change and 0.8139 fold change
fold change p-JNK vs Tubulin ([3]; Time 1 h): 0.895 fold change and 1.558 fold change and 0.8178 fold change
fold change p-p38 vs Tubulin ([3]; Time 1 h): 1.508 fold change and 0.8638 fold change and 1.487 fold change
fold change p-p53 vs Tubulin ([3]; Time 1 h): 0.9865 fold change and 0.9436 fold change and 1.458 fold change
fold change p-ERK vs Tubulin ([3]; Time 3 h): 1.409 fold change and 0.9423 fold change and 1.158 fold change
fold change p-JNK vs Tubulin ([3]; Time 3 h): 1.014 fold change and 1.185 fold change and 0.899 fold change
fold change p-p38 vs Tubulin ([3]; Time 3 h): 1.39 fold change and 0.6346 fold change and 1.266 fold change
fold change p-p53 vs Tubulin ([3]; Time 3 h): 0.5865 fold change and 1.299 fold change and 1.138 fold change
fold change p-ERK vs Tubulin ([3]; Time 6 h): 2.441 fold change and 1.161 fold change and 1.546 fold change
fold change p-JNK vs Tubulin ([3]; Time 6 h): 1.257 fold change and 1.756 fold change and 0.7623 fold change
fold change p-p38 vs Tubulin ([3]; Time 6 h): 0.9545 fold change and 1.021 fold change and 0.8104 fold change
fold change p-p53 vs Tubulin ([3]; Time 6 h): 1.308 fold change and 1.189 fold change and 1.275 fold change
fold change p-ERK vs Tubulin ([3]; Time 24 h): 2.387 fold change and 2.45 fold change and 1.9989 fold change
fold change p-JNK vs Tubulin ([3]; Time 24 h): 1.302 fold change and 2.33 fold change and 0.8503 fold change
fold change p-p38 vs Tubulin ([3]; Time 24 h): 0.6414 fold change and 1.823 fold change and 1.149 fold change
fold change p-p53 vs Tubulin ([3]; Time 24 h): 3.183 fold change and 2.955 fold change and 1.906 fold change
fold change BAX vs Tubulin ([3]; time 1 h): 1.198 fold change and 1.173 fold change and 0.877 fold change
fold change MCL1 vs Tubulin ([3]; time 1 h): 1.103 fold change and 0.99 fold change and 0.761 fold change
fold change BAX vs Tubulin ([3]; time 3 h): 0.789 fold change and 1.149 fold change and 1.345 fold change
fold change MCL1 vs Tubulin ([3]; time 3 h): 0.575 fold change and 0.967 fold change and 0.513 fold change
fold change BAX vs Tubulin ([3]; time 6 h): 1.098 fold change and 1.54 fold change and 2.188 fold change
fold change BID full length vs Tubulin ([3]; time 6 h): 0.649 fold change and 1.175 fold change and 0.953 fold change
fold change MCL1 vs Tubulin ([3]; time 6 h): 1.101 fold change and 0.938 fold change and 0.603 fold change
fold change BID full length vs Tubulin ([3]; time 24 h): 1.562 fold change and 1.807 fold change and 1.427 fold change
fold change MCL1 vs Tubulin ([3]; time 24 h): 0.943 fold change and 0.926 fold change and 0.668 fold change
phosphorylation of CHK1/2 (DDR pathway, western blot) ([4]; PANC1, IC50, 1, 3, 6 or 24 h): induced the phosphorylation
fold change BAX vs Tubulin ([4]; PANC1, time 1 h, Fig. S3B): 1.6915 fold change and 0.9781 fold change and 1.332 fold change
fold change MCL1 vs Tubulin ([4]; PANC1, time 1 h, Fig. S3B): 0.9288 fold change and 1.014 fold change and 1.02 fold change
fold change BAX vs Tubulin ([4]; PANC1, time 3 h, Fig. S3B): 1.86 fold change and 1.118 fold change and 1.518 fold change
fold change MCL1 vs Tubulin ([4]; PANC1, time 3 h, Fig. S3B): 1.904 fold change and 2.322 fold change and 1.672 fold change
fold change BAX vs Tubulin ([4]; PANC1, time 6 h, Fig. S3B): 1.424 fold change and 1.3785 fold change and 1.29 fold change
fold change MCL1 vs Tubulin ([4]; PANC1, time 6 h, Fig. S3B): 1.358 fold change and 1.631 fold change and 1.901 fold change
fold change BAX vs Tubulin ([4]; PANC1, time 24 h, Fig. S3B): 1.469 fold change and 1.617 fold change and 1.511 fold change
fold change BID full length vs Tubulin ([4]; PANC1, time 24 h, Fig. S3B): 1.745 fold change and 2.178 fold change and 1.991 fold change
fold change MCL1 vs Tubulin ([4]; PANC1, time 24 h, Fig. S3B): 1.279 fold change and 1.508 fold change and 1.299 fold change
fold change p-ERK vs Tubulin ([4]; Time 1 h): 1.164 fold change and 1.13 fold change and 1.21 fold change
fold change p-JNK vs Tubulin ([4]; Time 1 h): 1.373 fold change and 1.201 fold change and 1.17 fold change
fold change p-p38 vs Tubulin ([4]; Time 1 h): 1.546 fold change and 1.183 fold change and 0.9863 fold change
fold change p-p53 vs Tubulin ([4]; Time 1 h): 1.04 fold change and 1.08 fold change and 0.83 fold change
fold change p-ERK vs Tubulin ([4]; Time 3 h): 0.6555 fold change and 1.708 fold change and 1.33 fold change
fold change p-p38 vs Tubulin ([4]; Time 3 h): 0.9361 fold change and 0.959 fold change and 0.6722 fold change
fold change p-p53 vs Tubulin ([4]; Time 3 h): 1.501 fold change and 1.122 fold change and 1.403 fold change
fold change p-ERK vs Tubulin ([4]; Time 6 h): 0.4691 fold change and 2.127 fold change and 1.29 fold change
fold change p-JNK vs Tubulin ([4]; Time 6 h): 0.7555 fold change and 0.4269 fold change and 0.7284 fold change
fold change p-p38 vs Tubulin ([4]; Time 6 h): 0.8737 fold change and 0.5515 fold change and 0.5907 fold change
fold change p-p53 vs Tubulin ([4]; Time 6 h): 2.227 fold change and 1.131 fold change and 2.015 fold change
fold change p-ERK vs Tubulin ([4]; Time 24 h): 0.8571 fold change and 2.648 fold change and 1.55 fold change
fold change p-JNK vs Tubulin ([4]; Time 24 h): 0.8188 fold change and 0.748 fold change and 1.253 fold change
fold change p-p38 vs Tubulin ([4]; Time 24 h): 1.702 fold change and 0.3951 fold change and 0.5063 fold change
fold change p-p53 vs Tubulin ([4]; Time 24 h): 2.03 fold change and 4.05 fold change and 2.63 fold change
CFUs ([5]; PANC1, 1 h pre-treatment at IC50, colonies after 10 days): 160 and 132 and 144
CFUs ([5]; PANC1, 3 h pre-treatment at IC50, colonies after 10 days): 20 and 28 and 36
colonies (CFUs), mean ± SD ([6]; AGS + NAC 0.5 mM): 0.7 ± 0.6
colonies (CFUs), mean ± SD ([6]; AGS, no NAC): 0
colonies (CFUs), mean ± SD ([7]; MKN45 + NAC 0.5 mM, IC50 concentration): 1 ± 1.4
colonies (CFUs), mean ± SD ([7]; MKN45, IC50 concentration, no NAC): 1 ± 1
